# Measured values from patent US20200405868A1, “GEL-FORMING POLYPEPTIDES” (priority 2018, published 2020).
# “Also recorded” adds a separate entry of the source. Like-named read-outs stand apart in the source and are kept apart here. *1 amine or outer side, *2 acyl side, *3 side chain or, on linkers, in order; H or OH if unused. Where no end group is shown, it is not given here. The star is where a group is joined. FITC = O=C1OC2(c3ccc(O)cc3Oc3cc(O)ccc32)c2ccc(NC(=S)*)cc21; K(Pal) = CCCCCCCCCCCCCCCC(=O)NCCCC[C@H](N[*:1])C(=O)[*:2]; Palmitoyl = CCCCCCCCCCCCCCCC(=O)*
# How the values were obtained:
# [1] = molecular target: melanocortin receptor 1 (MC1R) (Homo sapiens, UniProt Q01726); test: MC1R cAMP assay (Discoverx), agonistic; assay type: cell-based
# Procedure: The agonistic activities toward MC1R, MC4R, CRHR2, PTHR1, and OPRK1 were assyed with an MC1R cAMP assay, an MC4R cAMP assay, a CRHR2 cAMP assay, a PTHR1 cAMP assay and an OPRK1 cAMP assay from Discoverx Inc. (Fremont, Calif.), respectively. The antagonistic activities toward bradykinin receptor 2 (BDKRB2) and GnRH receptor (GnRHR or LHRHR) were assayed with a BDKRB2 arrestin assay and a GnRHR calcium flux assay from Discoverx, respectively.
# For the analysis of Gs-coupled cAMP production, cAMP Hunter cell lines were expanded from freezer stocks, and cells were seeded in a total volume of 20 μL into white walled, 384-well microplates and incubated at 37 C for the appropriate time prior to testing. The cAMP modulation was determined using the DiscoverX HitHunter cAMP XS+ assay. For agonistic activity determination, cells were incubated with sample to induce response. Media was aspirated from cells and replaced with 15 μL 2:1 HBSS/10 mM Hepes: cAMP XS+ Ab reagent. Intermediate dilution of sample stocks was performed to generate 4× sample in assay buffer, and 5 μL of 4× sample was added to cells and incubated at 37 C or room temperature for 30 or 60 minutes. Vehicle concentration was 1%. The compound activity was analyzed using a CBIS data analysis suite (ChemInnovation, CA). For Gs-coupled agonistic assays, percentage activity is calculated using the following formula: % Activity=100%×(mean RLU of test sample−mean RLU of vehicle control)/(mean RLU of MAX control−mean RLU of vehicle control).
# [2] = Compound gel-forming ability in water (visual inspection, tube tapping assay, tilted tube assay); assay type: physicochemical; conditions: for gel formation in aqueous solution, 11% / propensity to form gels, chimeric or mutated polypeptides, 11% / propensity to form gels, wild-type counterparts, 11%: 11% w/w; for gel formation at 11% w/w: 11% w/w in water; for gel formation in aqueous solution, 6% / propensity to form gels, chimeric or mutated polypeptides, 6% / propensity to form gels, wild-type counterparts, 6%: 6% w/w; for Physical property at 11% w/w: 11% w/w in aqueous solution, room temperature; for gel formation at 6% w/w: 6% w/w in water;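 as to all read-outs here: peptides mixed with de-ionized water at about 22-25 °C, judged after 20 min by eye plus tube tapping (10 taps, moves counted) and 90° tilt mobility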
# melanocortin receptor 1 (MC1R), sequence (Q01726 whole entry): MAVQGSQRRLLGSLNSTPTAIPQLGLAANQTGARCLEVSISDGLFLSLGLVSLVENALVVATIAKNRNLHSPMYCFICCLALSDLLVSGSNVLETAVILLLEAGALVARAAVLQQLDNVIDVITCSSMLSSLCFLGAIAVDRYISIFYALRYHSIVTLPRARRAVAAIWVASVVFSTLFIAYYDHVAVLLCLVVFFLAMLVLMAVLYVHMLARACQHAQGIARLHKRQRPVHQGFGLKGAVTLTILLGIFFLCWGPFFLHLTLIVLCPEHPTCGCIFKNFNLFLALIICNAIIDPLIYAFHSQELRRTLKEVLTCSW
Physical property at 11% w/w ([2]; Table 1),Compound,"gel formation in aqueous solution, 11% ([2]; Table 3)",gel formation at 11% w/w [2],"gel formation in aqueous solution, 6% ([2]; Table 3)",also measured
–,"CCCCCCCCCCCCCCCC(=O)N[C@@H](Cc1c[nH]cn1)C(=O)N[C@@H](CO)C(=O)N[C@@H](Cc1ccc(O)cc1)C(=O)N[C@@H](CO)C(=O)N[C@@H](CCCC)C(=O)N[C@@H](CCC(=O)O)C(=O)N[C@@H](Cc1c[nH]cn1)C(=O)N[C@H](Cc1ccccc1)C(=O)N[C@@H](CCCNC(=N)N)C(=O)N[C@@H](Cc1c[nH]c2ccccc12)C(=O)NCC(=O)N[C@@H](CCCCN)C(=O)N1CCC[C@H]1C(=O)N[C@H](C(N)=O)C(C)C [SEQ ID NO:224, Pal-HSYS-Nle-EH-(D-Phe)-RWGKPV-NH2]",–,–,–,EC50 [1]: subnanomolar; Max Activity % of positive control [1]: 120 % of positive control; EC50 ([1]; read-out: EC50): < 0.05 nM
–,CCCCCCCCCCCCCCCC(=O)N[C@@H](Cc1c[nH]cn1)C(=O)N[C@@H](CO)C(=O)N[C@@H](Cc1ccc(O)cc1)C(=O)N[C@@H](CO)C(=O)N[C@@H](CCSC)C(=O)N[C@@H](CCC(=O)O)C(=O)N[C@@H](Cc1c[nH]cn1)C(=O)N[C@@H](Cc1ccccc1)C(=O)N[C@@H](CCCNC(=N)N)C(=O)N[C@@H](Cc1c[nH]c2ccccc12)C(=O)NCC(=O)N[C@@H](CCCCN)C(=O)N1CCC[C@H]1C(=O)N[C@H](C(=O)NCC(=O)N[C@@H](CCCCN)C(=O)N[C@@H](CCCCN)C(=O)N[C@@H](CCCNC(=N)N)C(=O)N[C@@H](CCCNC(=N)N)C(=O)N1CCC[C@H]1C(=O)N[C@H](C(=O)N[C@@H](CCCCN)C(=O)N[C@H](C(=O)N[C@@H](Cc1ccc(O)cc1)C(=O)N1CCC[C@H]1C(=O)O)C(C)C)C(C)C)C(C)C [SEQ ID NO:226],SS (SS for semisolid gel),–,–,"propensity to form gels, chimeric or mutated polypeptides, 11% ([2]; Table 5): SS (An ability to form semisolid gel is represented by an SS); EC50 [1]: nanomolar; Max Activity % of positive control [1]: 115 % of positive control"
–,Pal-SSPHSY-miniPEG-YRSRKYSSVVY-NH2 ({Palmitoyl-Ser-Ser-Pro-H2N-Ser-Tyr-miniPEG}-YRSRKYSSVVY-NH2) [SEQ ID NO:249],SS (SS for semisolid gel),semisolid gel,AS/IS (AS/IS for aqueous solution or insoluble),"propensity to form gels, chimeric or mutated polypeptides, 6% ([2]; Table 5): AS/IS; propensity to form gels, chimeric or mutated polypeptides, 11% ([2]; Table 5): SS (An ability to form semisolid gel is represented by an SS)"
–,Pal-VGSNTY-NH2 [SEQ ID NO:133],–,–,–,Physical property at 11% w/w ([2]; Table 2): AS/IS (AS/IS for aqueous solution or insoluble)
–,Pal-KVQKLSAPVDPSSPHSY-miniPEG-Y-(D-Met)-FHLMD-NH2 [SEQ ID NO:210],SS (SS for semisolid gel),semisolid gel,SS (SS for semisolid gel),"gel formation at 6% w/w [2]: semisolid or liquid gel; propensity to form gels, chimeric or mutated polypeptides, 6% ([2]; Table 5): SS (An ability to form semisolid gel is represented by an SS); propensity to form gels, chimeric or mutated polypeptides, 11% ([2]; Table 5): SS (An ability to form semisolid gel is represented by an SS)"
AS/IS,"VGVAPG-NH2 [SEQ ID NO:45, reference compound]",AS/IS (AS/IS for aqueous solution or insoluble),–,AS/IS (AS/IS for aqueous solution or insoluble),"propensity to form gels, wild-type counterparts, 6% ([2]; Table 5): AS/IS; propensity to form gels, wild-type counterparts, 11% ([2]; Table 5): AS/IS"
–,Pal-KVQKLAHQSAPVDPSSPHSY-NH2 [SEQ ID NO:105],–,–,–,Physical property at 11% w/w ([2]; Table 2): AS/IS (AS/IS for aqueous solution or insoluble)
–,Pal-SSPHSY-miniPEG-(D-Arg)-Arg-Pro-Hyp-Gly-Thi-Ser-(D-Tic)-Oic-Arg [SEQ ID NO:233],AS/IS (AS/IS for aqueous solution or insoluble),–,–,"gel formation at 30% w/w ([2]; 30% w/w in water): semisolid gel; gel formation in aqueous solution, 30% ([2]; Table 3, 30% w/w): SS (SS for semisolid gel)"
–,Pal-SSPHSY-miniPEG-YIGSR-NH2 [SEQ ID NO:246],SS (SS for semisolid gel),semisolid gel,SS (SS for semisolid gel),"propensity to form gels, chimeric or mutated polypeptides, 6% ([2]; Table 5): SS (An ability to form semisolid gel is represented by an SS); propensity to form gels, chimeric or mutated polypeptides, 11% ([2]; Table 5): SS (An ability to form semisolid gel is represented by an SS)"
AS/IS,"RGD-NH2 [SEQ ID NO:44, reference compound]",AS/IS (AS/IS for aqueous solution or insoluble),–,–,"propensity to form gels, wild-type counterparts, 11% ([2]; Table 5): AS/IS"
–,Pal-SSPHSY-miniPEG-YADAIFTNSYRKVLGQLSARKLLQDIMSR-NH2 [SEQ ID NO:236],AS/IS (AS/IS for aqueous solution or insoluble),–,AS/IS (AS/IS for aqueous solution or insoluble),–
AS/IS,"KTTKS-NH2 [SEQ ID NO:43, reference compound]",–,–,–,–
–,Pal-HSYVMGHFRWDRF-NH2 [SEQ ID NO:260],–,–,–,gel formation at 6% w/w [2]: liquid gel
SS (SS for semisolid gel),"CC[C@H](C)[C@H](N)C(=O)N[C@H]1CSSC[C@@H](C(=O)N[C@H](C(N)=O)[C@@H](C)O)NC(=O)[C@H](CCCN=C(N)N)NC(=O)[C@H](Cc2cnc[nH]2)NC(=O)[C@H](Cc2cnc[nH]2)NC(=O)CNC(=O)[C@H](Cc2c[nH]c3ccccc23)NC(=O)[C@H](CC(=O)O)NC(=O)[C@H](CCC(N)=O)NC(=O)[C@H](C(C)C)NC(=O)[C@H](C(C)C)NC1=O [SEQ ID NO:11, reference compound]",SS (SS for semisolid gel),form self-assembling gels; also recorded: semisolid gel,–,"propensity to form gels, wild-type counterparts, 11% ([2]; Table 5): SS (An ability to form semisolid gel is represented by an SS)"
–,FITC-K(Pal)SSPHSY-miniPEG-GRKKRRQRRRPQ ({FITC-K(Pal)-Ser-Ser-Pro-H2N-Ser-Tyr-miniPEG}-GRKKRRQRRRPQ) [SEQ ID NO:241],–,liquid gel,–,–
–,Pal-HSY-(D-Met)-FHLMD-NH2 [SEQ ID NO:211],SS (SS for semisolid gel),semisolid gel,–,gel formation at 6% w/w [2]: semisolid or liquid gel
–,Ace-TVQKLAHQIYQFTDKDKDNVAPRSKISPQGY-NH2 [SEQ ID NO:101],–,–,–,Physical property at 11% w/w ([2]; Table 2): AS/IS (AS/IS for aqueous solution or insoluble)

Compound,Physical property at 11% w/w ([2]; Table 1),"gel formation in aqueous solution, 11% ([2]; Table 3)",gel formation at 11% w/w [2],"gel formation in aqueous solution, 6% ([2]; Table 3)",also measured
"PGTCEICAYAACTGC [SEQ ID NO:40, reference compound]",AS/IS,–,–,–,–
"IVLSLDVPIGLLQILLEQARARAAREQATTNARILARVGHC-NH2 [SEQ ID NO:31, reference compound]",AS/IS,AS/IS (AS/IS for aqueous solution or insoluble),does not form gel,–,"gel formation at 20% w/w ([2]; 20% w/w in water): does not form gel; gel formation in aqueous solution, 20% ([2]; Table 3, 20% w/w): AS/IS (AS/IS for aqueous solution or insoluble); propensity to form gels, wild-type counterparts, 11% ([2]; Table 5): AS/IS; propensity to form gels, wild-type counterparts, 20% ([2]; Table 5, 20% w/w): AS/IS; gel formation at the selected concentration ([2]; selected concentration (i.e., at 30%, 20%, 11%, or 6% w/w)): only form aqueous solution or are insoluble"
"YNWNSFGLRF-NH2 [SEQ ID NO:6, reference compound]",SS (SS for semisolid gel),SS (SS for semisolid gel),form self-assembling gels; also recorded: semisolid gel,SS (SS for semisolid gel),"gel formation at 6% w/w [2]: semisolid gel; propensity to form gels, wild-type counterparts, 6% ([2]; Table 5): SS (An ability to form semisolid gel is represented by an SS); propensity to form gels, wild-type counterparts, 11% ([2]; Table 5): SS (An ability to form semisolid gel is represented by an SS)"
